The NIST ThermoML archive (doi:10.1021/je400332j)
± gives the expanded uncertainty stated by the source.

Experiment: xn = mol fraction of the nth substance listed
Settings: 101 kPa, Liquid; for viscosity: Concentric cylinders viscometry; for mass density: Vibrating tube method

SMILES: CCCCCCn1cc[n+](C)c1.F[B-](F)(F)F [1-hexyl-3-methylimidazolium tetrafluoroborate] + CCn1cc[n+](C)c1.F[B-](F)(F)F
- viscosity (293.15 K, x2 = 0): 280.4 ± 23 mPa·s
- viscosity (293.15 K, x2 = 0.1009): 244.3 ± 20 mPa·s
- viscosity (293.15 K, x2 = 0.2005): 210.7 ± 17 mPa·s
- viscosity (293.15 K, x2 = 0.3003): 179.6 ± 15 mPa·s
- viscosity (293.15 K, x2 = 0.4001): 151.7 ± 12 mPa·s
- viscosity (293.15 K, x2 = 0.4999): 127.1 ± 10 mPa·s
- viscosity (293.15 K, x2 = 0.6007): 105 ± 8.5 mPa·s
- viscosity (293.15 K, x2 = 0.7004): 86.22 ± 7 mPa·s
- viscosity (293.15 K, x2 = 0.8001): 69.78 ± 5.6 mPa·s
- viscosity (293.15 K, x2 = 0.8998): 56.02 ± 4.5 mPa·s
- mass density (293.15 K, x2 = 0): 1147.5 ± 1.1 kg/m3
- mass density (293.15 K, x2 = 0.1009): 1157.3 ± 1.1 kg/m3
- mass density (293.15 K, x2 = 0.2005): 1168.1 ± 1.1 kg/m3
- mass density (293.15 K, x2 = 0.3003): 1179.5 ± 1.1 kg/m3
- mass density (293.15 K, x2 = 0.4001): 1191.4 ± 1.1 kg/m3
- mass density (293.15 K, x2 = 0.4999): 1204.3 ± 1.1 kg/m3
- mass density (293.15 K, x2 = 0.6007): 1218.1 ± 1.1 kg/m3
- mass density (293.15 K, x2 = 0.7004): 1232.7 ± 1.1 kg/m3
- mass density (293.15 K, x2 = 0.8001): 1248.5 ± 1.1 kg/m3
- mass density (293.15 K, x2 = 0.8998): 1265.3 ± 1.1 kg/m3
- viscosity (298.15 K, x2 = 0): 206.3 ± 17 mPa·s
- viscosity (298.15 K, x2 = 0.1009): 180.8 ± 15 mPa·s
- viscosity (298.15 K, x2 = 0.2005): 157.2 ± 13 mPa·s
- viscosity (298.15 K, x2 = 0.3003): 135.1 ± 11 mPa·s
- viscosity (298.15 K, x2 = 0.4001): 115.2 ± 9.4 mPa·s
- viscosity (298.15 K, x2 = 0.4999): 97.48 ± 7.9 mPa·s
- viscosity (298.15 K, x2 = 0.6007): 81.5 ± 6.6 mPa·s
- viscosity (298.15 K, x2 = 0.7004): 67.79 ± 5.5 mPa·s
- viscosity (298.15 K, x2 = 0.8001): 55.7 ± 4.5 mPa·s
- viscosity (298.15 K, x2 = 0.8998): 45.42 ± 3.7 mPa·s
- mass density (298.15 K, x2 = 0): 1144.1 ± 1.1 kg/m3
- mass density (298.15 K, x2 = 0.1009): 1153.9 ± 1.1 kg/m3
- mass density (298.15 K, x2 = 0.2005): 1164.7 ± 1.1 kg/m3
- mass density (298.15 K, x2 = 0.3003): 1176.1 ± 1.1 kg/m3
- mass density (298.15 K, x2 = 0.4001): 1188 ± 1.1 kg/m3
- mass density (298.15 K, x2 = 0.4999): 1200.8 ± 1.1 kg/m3
- mass density (298.15 K, x2 = 0.6007): 1214.6 ± 1.1 kg/m3
- mass density (298.15 K, x2 = 0.7004): 1229.1 ± 1.1 kg/m3
- mass density (298.15 K, x2 = 0.8001): 1244.9 ± 1.1 kg/m3
- mass density (298.15 K, x2 = 0.8998): 1261.7 ± 1.1 kg/m3
- viscosity (303.15 K, x2 = 0): 154.9 ± 13 mPa·s
- viscosity (303.15 K, x2 = 0.1009): 136.9 ± 11 mPa·s
- viscosity (303.15 K, x2 = 0.2005): 119.8 ± 9.8 mPa·s
- viscosity (303.15 K, x2 = 0.3003): 103.8 ± 8.4 mPa·s
- viscosity (303.15 K, x2 = 0.4001): 89.33 ± 7.2 mPa·s
- viscosity (303.15 K, x2 = 0.4999): 76.33 ± 6.2 mPa·s
- viscosity (303.15 K, x2 = 0.6007): 64.52 ± 5.2 mPa·s
- viscosity (303.15 K, x2 = 0.7004): 54.31 ± 4.4 mPa·s
- viscosity (303.15 K, x2 = 0.8001): 45.2 ± 3.6 mPa·s
- viscosity (303.15 K, x2 = 0.8998): 37.38 ± 3 mPa·s
- mass density (303.15 K, x2 = 0): 1140.6 ± 1 kg/m3
- mass density (303.15 K, x2 = 0.1009): 1150.5 ± 1.1 kg/m3
- mass density (303.15 K, x2 = 0.2005): 1161.2 ± 1.1 kg/m3
- mass density (303.15 K, x2 = 0.3003): 1172.5 ± 1.1 kg/m3
- mass density (303.15 K, x2 = 0.4001): 1184.4 ± 1.1 kg/m3
- mass density (303.15 K, x2 = 0.4999): 1197.2 ± 1.1 kg/m3
- mass density (303.15 K, x2 = 0.6007): 1211 ± 1.1 kg/m3
- mass density (303.15 K, x2 = 0.7004): 1225.5 ± 1.1 kg/m3
- mass density (303.15 K, x2 = 0.8001): 1241.2 ± 1.1 kg/m3
- mass density (303.15 K, x2 = 0.8998): 1257.9 ± 1.1 kg/m3
- viscosity (308.15 K, x2 = 0): 118.7 ± 9.7 mPa·s
- viscosity (308.15 K, x2 = 0.1009): 105.5 ± 8.6 mPa·s
- viscosity (308.15 K, x2 = 0.2005): 92.98 ± 7.5 mPa·s
- viscosity (308.15 K, x2 = 0.3003): 81.23 ± 6.6 mPa·s
- viscosity (308.15 K, x2 = 0.4001): 70.51 ± 5.7 mPa·s
- viscosity (308.15 K, x2 = 0.4999): 60.8 ± 4.9 mPa·s
- viscosity (308.15 K, x2 = 0.6007): 51.94 ± 4.2 mPa·s
- viscosity (308.15 K, x2 = 0.7004): 44.18 ± 3.6 mPa·s
- viscosity (308.15 K, x2 = 0.8001): 37.22 ± 3 mPa·s
- viscosity (308.15 K, x2 = 0.8998): 31.18 ± 2.5 mPa·s
- mass density (308.15 K, x2 = 0): 1137.2 ± 1 kg/m3
- mass density (308.15 K, x2 = 0.1009): 1147.1 ± 1.1 kg/m3
- mass density (308.15 K, x2 = 0.2005): 1157.8 ± 1.1 kg/m3
- mass density (308.15 K, x2 = 0.3003): 1169 ± 1.1 kg/m3
- mass density (308.15 K, x2 = 0.4001): 1180.9 ± 1.1 kg/m3
- mass density (308.15 K, x2 = 0.4999): 1193.6 ± 1.1 kg/m3
- mass density (308.15 K, x2 = 0.6007): 1207.4 ± 1.1 kg/m3
- mass density (308.15 K, x2 = 0.7004): 1221.8 ± 1.1 kg/m3
- mass density (308.15 K, x2 = 0.8001): 1237.5 ± 1.1 kg/m3
- mass density (308.15 K, x2 = 0.8998): 1254.2 ± 1.1 kg/m3
- viscosity (313.15 K, x2 = 0): 92.56 ± 7.5 mPa·s
- viscosity (313.15 K, x2 = 0.1009): 82.73 ± 6.7 mPa·s
- viscosity (313.15 K, x2 = 0.2005): 73.45 ± 5.9 mPa·s
- viscosity (313.15 K, x2 = 0.3003): 64.64 ± 5.2 mPa·s
- viscosity (313.15 K, x2 = 0.4001): 56.57 ± 4.6 mPa·s
- viscosity (313.15 K, x2 = 0.4999): 49.22 ± 4 mPa·s
- viscosity (313.15 K, x2 = 0.6007): 42.45 ± 3.4 mPa·s
- viscosity (313.15 K, x2 = 0.7004): 36.47 ± 2.9 mPa·s
- viscosity (313.15 K, x2 = 0.8001): 31.06 ± 2.5 mPa·s
- viscosity (313.15 K, x2 = 0.8998): 26.32 ± 2.1 mPa·s
- mass density (313.15 K, x2 = 0): 1133.7 ± 1 kg/m3
- mass density (313.15 K, x2 = 0.1009): 1143.6 ± 1.1 kg/m3
- mass density (313.15 K, x2 = 0.2005): 1154.3 ± 1.1 kg/m3
- mass density (313.15 K, x2 = 0.3003): 1165.5 ± 1.1 kg/m3
- mass density (313.15 K, x2 = 0.4001): 1177.4 ± 1.1 kg/m3
- mass density (313.15 K, x2 = 0.4999): 1190.1 ± 1.1 kg/m3
- mass density (313.15 K, x2 = 0.6007): 1203.8 ± 1.1 kg/m3
- mass density (313.15 K, x2 = 0.7004): 1218.2 ± 1.1 kg/m3
- mass density (313.15 K, x2 = 0.8001): 1233.8 ± 1.1 kg/m3
- mass density (313.15 K, x2 = 0.8998): 1250.4 ± 1.1 kg/m3
- viscosity (318.15 K, x2 = 0): 73.37 ± 5.9 mPa·s
- viscosity (318.15 K, x2 = 0.1009): 65.95 ± 5.3 mPa·s
- viscosity (318.15 K, x2 = 0.2005): 58.94 ± 4.8 mPa·s
- viscosity (318.15 K, x2 = 0.3003): 52.24 ± 4.2 mPa·s
- viscosity (318.15 K, x2 = 0.4001): 46.08 ± 3.7 mPa·s
- viscosity (318.15 K, x2 = 0.4999): 40.41 ± 3.3 mPa·s
- viscosity (318.15 K, x2 = 0.6007): 35.16 ± 2.8 mPa·s
- viscosity (318.15 K, x2 = 0.7004): 30.49 ± 2.4 mPa·s
- viscosity (318.15 K, x2 = 0.8001): 26.23 ± 2.1 mPa·s
- viscosity (318.15 K, x2 = 0.8998): 22.48 ± 1.8 mPa·s
